# From ChEMBL document CHEMBL3885881, “DrugMatrix”
# Species on record: Rattus norvegicus
# Assay: DrugMatrix - Regimen: Daily Repeat
# Format: toxicity, organism-based, Sprague-Dawley
# Parameters: regimen Daily Repeat, gender Male, age 6-8 weeks
# Conditions: in vivo, sc, route subcutaneous, […]; for ABSOLUTE BASOPHIL / ABSOLUTE EOSINOPHIL / ABSOLUTE LYMPHOCYTE / ABSOLUTE MONOCYTE / ABSOLUTE SEGMENTED NEUTROPHIL / BASOPHIL / EOSINOPHIL / ERYTHROCYTE COUNT / HEMATOCRIT / HEMOGLOBIN / LEUKOCYTE COUNT / LYMPHOCYTE / MEAN CORPUSCULAR HEMOGLOBIN / MEAN CORPUSCULAR HEMOGLOBIN CONCENTRATION / MONOCYTE / NUCLEATED RED BLOOD CELLS / PLATELET COUNT: tissue Blood; for ALANINE AMINOTRANSFERASE / ALBUMIN / ALKALINE PHOSPHATASE / ASPARTATE AMINOTRANSFERASE / BLOOD UREA NITROGEN / CARBON DIOXIDE / CHLORIDE / CHOLESTEROL / CREATINE PHOSPHOKINASE / CREATININE / GLUCOSE / LACTATE DEHYDROGENASE / PHOSPHORUS / POTASSIUM / SODIUM / TOTAL BILIRUBIN / TOTAL PROTEIN / URIC ACID: tissue Plasma
# [1] = 130 mg/kg, 72 h, dose level High, time 3 day
# [2] = 130 mg/kg, 120 h, dose level High, time 5 day
# [3] = 72 h, dose 2.4 mg/Kg, dose level Low, time 3 day
# [4] = 120 h, dose 2.4 mg/Kg, dose level Low, time 5 day
smiles,measurement,setting,value
CC(C)(C)NCC(O)c1cc(O)cc(O)c1 (stereo not given) [TERBUTALINE],ABSOLUTE BASOPHIL,[1],0 CELLS/uL
same,ABSOLUTE EOSINOPHIL,[1],167.67 CELLS/uL
same,ABSOLUTE LYMPHOCYTE,[1],11900.33 CELLS/uL
same,ABSOLUTE MONOCYTE,[1],398.67 CELLS/uL
same,ABSOLUTE SEGMENTED NEUTROPHIL,[1],1166.67 CELLS/uL
same,BASOPHIL,[1],0%
same,EOSINOPHIL,[1],1.33%
same,ERYTHROCYTE COUNT,[1],5.52 x10E6/uL
same,HEMATOCRIT,[1],35.5%
same,HEMOGLOBIN,[1],13.33 G/DL
same,LEUKOCYTE COUNT,[1],13.63 x10E3/uL
same,LYMPHOCYTE,[1],87%
same,MEAN CORPUSCULAR HEMOGLOBIN,[1],24.2 pg
same,MEAN CORPUSCULAR HEMOGLOBIN CONCENTRATION,[1],37.57 G/DL
same,MONOCYTE,[1],3%
same,NUCLEATED RED BLOOD CELLS,[1],0 /100WBC
same,PLATELET COUNT,[1],1383.67 x10E3/uL
same,ALANINE AMINOTRANSFERASE,[1],49 u/L
same,ALBUMIN,[1],4.03 G/DL
same,ALKALINE PHOSPHATASE,[1],361 u/L
same,ASPARTATE AMINOTRANSFERASE,[1],73.33 u/L
same,BLOOD UREA NITROGEN,[1],18.33 mg/dL
same,CARBON DIOXIDE,[1],25.67 mmol/L
same,CHLORIDE,[1],104 MEQ/L
same,CHOLESTEROL,[1],72.33 mg/dL
same,CREATINE PHOSPHOKINASE,[1],253.67 u/L
same,CREATININE,[1],0.23 mg/dL
same,GLUCOSE,[1],146 mg/dL
same,LACTATE DEHYDROGENASE,[1],407 u/L
same,PHOSPHORUS,[1],12.8 mg/dL
same,POTASSIUM,[1],6.42 MEQ/L
same,SODIUM,[1],145.5 MEQ/L
same,TOTAL BILIRUBIN,[1],0.2 mg/dL
same,TOTAL PROTEIN,[1],5.97 G/DL
same,URIC ACID,[1],1.3 mg/dL
same,ABSOLUTE BASOPHIL,[2],0 CELLS/uL
same,ABSOLUTE EOSINOPHIL,[2],53.33 CELLS/uL
same,ABSOLUTE LYMPHOCYTE,[2],12240 CELLS/uL
same,ABSOLUTE MONOCYTE,[2],406 CELLS/uL
same,ABSOLUTE SEGMENTED NEUTROPHIL,[2],2467.33 CELLS/uL
same,BASOPHIL,[2],0%
same,EOSINOPHIL,[2],0.33%
same,ERYTHROCYTE COUNT,[2],6.08 x10E6/uL
same,HEMATOCRIT,[2],37.43%
same,HEMOGLOBIN,[2],14.03 G/DL
same,LEUKOCYTE COUNT,[2],15.17 x10E3/uL
same,LYMPHOCYTE,[2],80.67%
same,MEAN CORPUSCULAR HEMOGLOBIN,[2],23.13 pg
same,MEAN CORPUSCULAR HEMOGLOBIN CONCENTRATION,[2],37.47 G/DL
same,MONOCYTE,[2],2.67%
same,NUCLEATED RED BLOOD CELLS,[2],0.33 /100WBC
same,PLATELET COUNT,[2],1346 x10E3/uL
same,ALANINE AMINOTRANSFERASE,[2],52.67 u/L
same,ALBUMIN,[2],4.13 G/DL
same,ALKALINE PHOSPHATASE,[2],293.33 u/L
same,ASPARTATE AMINOTRANSFERASE,[2],84.67 u/L
same,BLOOD UREA NITROGEN,[2],17.33 mg/dL
same,CARBON DIOXIDE,[2],28.33 mmol/L
same,CHLORIDE,[2],101.33 MEQ/L
same,CHOLESTEROL,[2],69 mg/dL
same,CREATINE PHOSPHOKINASE,[2],289.33 u/L
same,CREATININE,[2],0.22 mg/dL
same,GLUCOSE,[2],150.67 mg/dL
same,LACTATE DEHYDROGENASE,[2],492.33 u/L
same,PHOSPHORUS,[2],14.6 mg/dL
same,POTASSIUM,[2],6.32 MEQ/L
same,SODIUM,[2],146.93 MEQ/L
same,TOTAL BILIRUBIN,[2],0.2 mg/dL
same,TOTAL PROTEIN,[2],6.13 G/DL
same,URIC ACID,[2],1.93 mg/dL
same,ABSOLUTE BASOPHIL,[3],0 CELLS/uL
same,ABSOLUTE EOSINOPHIL,[3],181 CELLS/uL
same,ABSOLUTE LYMPHOCYTE,[3],16357.33 CELLS/uL
same,ABSOLUTE MONOCYTE,[3],366 CELLS/uL
same,ABSOLUTE SEGMENTED NEUTROPHIL,[3],1395.67 CELLS/uL
same,BASOPHIL,[3],0%
same,EOSINOPHIL,[3],1%
same,ERYTHROCYTE COUNT,[3],5.97 x10E6/uL
same,HEMATOCRIT,[3],37.73%
same,HEMOGLOBIN,[3],13.8 G/DL
same,LEUKOCYTE COUNT,[3],18.3 x10E3/uL
same,LYMPHOCYTE,[3],89.33%
same,MEAN CORPUSCULAR HEMOGLOBIN,[3],23.13 pg
same,MEAN CORPUSCULAR HEMOGLOBIN CONCENTRATION,[3],36.6 G/DL
same,MONOCYTE,[3],2%
same,NUCLEATED RED BLOOD CELLS,[3],0 /100WBC
same,PLATELET COUNT,[3],1334.67 x10E3/uL
same,ALANINE AMINOTRANSFERASE,[3],41.67 u/L
same,ALBUMIN,[3],4.2 G/DL
same,ALKALINE PHOSPHATASE,[3],286.67 u/L
same,ASPARTATE AMINOTRANSFERASE,[3],75 u/L
same,BLOOD UREA NITROGEN,[3],17 mg/dL
same,CARBON DIOXIDE,[3],24.33 mmol/L
same,CHLORIDE,[3],105.67 MEQ/L
same,CHOLESTEROL,[3],72.67 mg/dL
same,CREATINE PHOSPHOKINASE,[3],235.33 u/L
same,CREATININE,[3],0.23 mg/dL
same,GLUCOSE,[3],155.67 mg/dL
same,LACTATE DEHYDROGENASE,[3],382 u/L
same,PHOSPHORUS,[3],13.4 mg/dL
same,POTASSIUM,[3],6.76 MEQ/L
same,SODIUM,[3],149.43 MEQ/L
same,TOTAL BILIRUBIN,[3],0.2 mg/dL
same,TOTAL PROTEIN,[3],6.23 G/DL
same,URIC ACID,[3],1.77 mg/dL
same,ABSOLUTE BASOPHIL,[4],0 CELLS/uL
same,ABSOLUTE EOSINOPHIL,[4],0 CELLS/uL
same,ABSOLUTE LYMPHOCYTE,[4],13803 CELLS/uL
same,ABSOLUTE MONOCYTE,[4],207 CELLS/uL
same,ABSOLUTE SEGMENTED NEUTROPHIL,[4],2023.33 CELLS/uL
same,BASOPHIL,[4],0%
same,EOSINOPHIL,[4],0%
same,ERYTHROCYTE COUNT,[4],5.8 x10E6/uL
same,HEMATOCRIT,[4],36.37%
same,HEMOGLOBIN,[4],13.53 G/DL
same,LEUKOCYTE COUNT,[4],16.03 x10E3/uL
same,LYMPHOCYTE,[4],86%
same,MEAN CORPUSCULAR HEMOGLOBIN,[4],23.33 pg
same,MEAN CORPUSCULAR HEMOGLOBIN CONCENTRATION,[4],37.23 G/DL
same,MONOCYTE,[4],1.33%
same,NUCLEATED RED BLOOD CELLS,[4],0 /100WBC
same,PLATELET COUNT,[4],1437.33 x10E3/uL
same,ALANINE AMINOTRANSFERASE,[4],49.33 u/L
same,ALBUMIN,[4],4.13 G/DL
same,ALKALINE PHOSPHATASE,[4],415 u/L
same,ASPARTATE AMINOTRANSFERASE,[4],76 u/L
same,BLOOD UREA NITROGEN,[4],20.33 mg/dL
same,CARBON DIOXIDE,[4],27.67 mmol/L
same,CHLORIDE,[4],105 MEQ/L
same,CHOLESTEROL,[4],63 mg/dL
same,CREATINE PHOSPHOKINASE,[4],180 u/L
same,CREATININE,[4],0.22 mg/dL
same,GLUCOSE,[4],154 mg/dL
same,LACTATE DEHYDROGENASE,[4],224.33 u/L
same,PHOSPHORUS,[4],13.03 mg/dL
same,POTASSIUM,[4],6.39 MEQ/L
same,SODIUM,[4],146.27 MEQ/L
same,TOTAL BILIRUBIN,[4],0.17 mg/dL
same,TOTAL PROTEIN,[4],5.87 G/DL
same,URIC ACID,[4],1.57 mg/dL
